In the supplement of paper PMC11061612:

Columns and labels:
[1] = test system: SW1463 (Colorectal Carcinoma); test: combination Emax (second highest fraction inhibited in the dose matrix, 72 h); higher = more inhibition; extreme values may be limits of the assay
Outline: (§1)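 Cell lines in DMEM/F12 or RPMI with 10% FBS were plated in 1536-well plates, held 24 hours at 37°C, 5% CO2, then given two-drug dose matrices for 72 hours (DMSO typically 0.2%). Viability was read by CellTiter-Glo 2.0 luminescence and scaled as inhibition from 0 (vehicle wells) to 1 (blank wells). Combination Emax is the second-highest inhibition in the matrix; Bliss excess is observed combination effect minus expected EA + EB − EA·EB, EA and EB being single-agent effects.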

[2] = test system: NCI-H1048 (Small Cell Lung Carcinoma); test: as above
Outline: as §1

[3] = test system: CAL-85-1 (Breast Carcinoma); test: as above
Outline: as §1

[4] = test system: NCI-H2023 (Non-Small Cell Lung Carcinoma); test: as above
Outline: as §1

[5] = test system: KNS-62 (Squamous Cell Lung Carcinoma); test: as above
Outline: as §1

[6] = test system: SK-N-DZ (Neuroblastoma); test: as above
Outline: as §1

[7] = test system: NCI-H2452 (Mesothelioma); test: as above
Outline: as §1

[8] = test system: SW1463 (Colorectal Carcinoma); test: Bliss excess, mean over the matrix (fraction); higher = more synergy
Outline: as §1

[9] = test system: NCI-H1975 (Lung Adenocarcinoma); test: as above
Outline: as §1

[10] = test system: JURL-MK1 (Chronic Myelogenous Leukemia); test: as above
Outline: as §1

[11] = test system: NCI-H835 (Other Solid Carcinomas); test: as above
Outline: as §1

[12] = test system: L-363 (Plasma Cell Myeloma); test: as above
Outline: as §1

[13] = test system: NCI-H1944 (Lung Adenocarcinoma); test: as above
Outline: as §1

[14] = test system: DK-MG (Glioblastoma); test: as above
Outline: as §1

[15] = test system: MDA-MB-175-VII (Breast Carcinoma); test: as above
Outline: as §1

[16] = test system: ATN-1 (T-Lymphoblastic Leukemia); test: as above
Outline: as §1

[17] = test system: SK-N-DZ (Neuroblastoma); test: as above
Outline: as §1

[18] = test system: NCI-H2452 (Mesothelioma); test: as above
Outline: as §1

[19] = test system: JJN-3 (Plasma Cell Myeloma); test: combination Emax (second highest fraction inhibited in the dose matrix, 72 h); higher = more inhibition; extreme values may be limits of the assay
Outline: as §1

[20] = test system: NTERA-2-cl-D1 (Other Solid Carcinomas); test: Bliss excess, mean over the matrix (fraction); higher = more synergy
Outline: as §1
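For Bliss excess, mean over the matrix in this document: after 72 h of two-drug dosing.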

SMILES | combination Emax [1] | combination Emax [2] | combination Emax [3] | combination Emax [4] | combination Emax [5] | combination Emax [6] | combination Emax [7] | Bliss excess [8] | Bliss excess [9] | Bliss excess [10] | Bliss excess [11] | Bliss excess [12] | Bliss excess [13] | Bliss excess [14] | Bliss excess [15] | Bliss excess [16] | Bliss excess [17] | Bliss excess [18] | combination Emax [19] | Bliss excess [20]
C=CCn1c(=O)c2cnc(Nc3ccc(N4CCN(C)CC4)cc3)nc2n1-c1cccc(C(C)(C)O)n1 [AZD1775] + C1CN(CCC1(C(=O)N[C@@H](CCO)C2=CC=C(C=C2)Cl)N)C3=NC=NC4=C3C=CN4 [Capivasertib] (first compound max 3 µM, partner max 3 µM) | 0.47 | 0.91 | 0.682 | 0.652 | 0.719 | 0.921 | 0.816 | -0.0888 | -0.0668 | 0.0007 | -0.0572 | -0.0379 | 0.0207 | -0.0023 | 0.0171 | 0.0364 | -0.0116 | -0.116 | – | –
CN(CCO)CC[C@H](CSc1ccccc1)Nc1ccc(S(=O)(=O)NC(=O)c2ccc(N3CCC([C@@H](O)c4ccccc4-c4ccc(Cl)cc4)CC3)cc2)cc1S(=O)(=O)C(F)(F)F [AZD4320] + C1CN(CCC1(C(=O)N[C@@H](CCO)C2=CC=C(C=C2)Cl)N)C3=NC=NC4=C3C=CN4 [Capivasertib] (first compound max 1 µM, 7x7, partner max 3 µM) | 0.271 | 0.86 | 0.264 | 0.264 | 0.232 | 0.705 | 0.202 | -0.0497 | -0.0459 | -0.07 | – | 0.0659 | -0.0508 | -0.0847 | 0.0425 | -0.0802 | -0.0417 | -0.0757 | 0.383 | 0.0075
CN(CCO)CC[C@H](CSc1ccccc1)Nc1ccc(S(=O)(=O)NC(=O)c2ccc(N3CCC([C@@H](O)c4ccccc4-c4ccc(Cl)cc4)CC3)cc2)cc1S(=O)(=O)C(F)(F)F [AZD4320] + CC(=O)O[C@H]1C(=O)[C@@]2(C)[C@H]([C@H](OC(=O)c3ccccc3)[C@]3(O)C[C@H](OC(=O)[C@H](O)[C@@H](NC(=O)c4ccccc4)c4ccccc4)C(C)=C1C3(C)C)[C@]1(OC(C)=O)CO[C@@H]1C[C@@H]2O [Paclitaxel] (first compound max 1 µM, 7x7, partner max 3 µM) | 0.767 | – | 0.884 | 0.776 | 0.957 | – | 0.983 | 0.0662 | – | – | 0.199 | -0.0131 | – | – | 0.107 | – | – | 0.117 | – | 0.0025
CN(CCO)CC[C@H](CSc1ccccc1)Nc1ccc(S(=O)(=O)NC(=O)c2ccc(N3CCC([C@@H](O)c4ccccc4-c4ccc(Cl)cc4)CC3)cc2)cc1S(=O)(=O)C(F)(F)F [AZD4320] + CCN(CCO)CCCOc1ccc2c(Nc3cc(CC(=O)Nc4cccc(F)c4)[nH]n3)ncnc2c1 [AZD2811] (first compound max 1 µM, 7x7, partner max 1 µM) | 0.204 | 0.933 | 0.397 | – | 0.207 | 0.787 | 0.364 | -0.0238 | -0.0226 | 0.0346 | – | -0.015 | 0.0026 | -0.0213 | 0.0289 | 0.0082 | 0.0087 | -0.0111 | 0.904 | 0.159
CN(CCO)CC[C@H](CSc1ccccc1)Nc1ccc(S(=O)(=O)NC(=O)c2ccc(N3CCC([C@@H](O)c4ccccc4-c4ccc(Cl)cc4)CC3)cc2)cc1S(=O)(=O)C(F)(F)F [AZD4320] + C[C@@H]1COCCN1C2=NC(=NC(=C2)C3(CC3)[S@](=N)(=O)C)C4=C5C=CNC5=NC=C4 [AZD6738] (first compound max 1 µM, 7x7, partner max 10 µM) | 0.566 | 0.981 | 0.633 | 0.868 | 0.581 | 1 | 0.704 | -0.0236 | -0.0134 | -0.0278 | – | -0.007 | -0.0227 | -0.0439 | -0.0429 | 0.0273 | -0.0559 | -0.0246 | 0.797 | -0.0301
CN(CCO)CC[C@H](CSc1ccccc1)Nc1ccc(S(=O)(=O)NC(=O)c2ccc(N3CCC([C@@H](O)c4ccccc4-c4ccc(Cl)cc4)CC3)cc2)cc1S(=O)(=O)C(F)(F)F [AZD4320] + C[C@@H](Nc1cc(F)cc(F)c1)c1cc(C(=O)N(C)C)cc2c(=O)cc(N3CCOCC3)oc12 [AZD8186] (first compound max 1 µM, 7x7, partner max 3 µM) | 0.27 | 0.962 | 0.668 | 0.351 | 0.382 | 0.868 | 0.364 | -0.0706 | 0.0261 | 0.0149 | – | 0.0753 | -0.0426 | -0.0164 | 0.0271 | -0.0214 | -0.0302 | -0.0369 | 0.497 | 0.0543
CN(CCO)CC[C@H](CSc1ccccc1)Nc1ccc(S(=O)(=O)NC(=O)c2ccc(N3CCC([C@@H](O)c4ccccc4-c4ccc(Cl)cc4)CC3)cc2)cc1S(=O)(=O)C(F)(F)F [AZD4320] + Cc1cc2ncnn2cc1Nc1ncc2c(n1)n(C1CCOCC1)c(=O)n2C [AZD7648] (first compound max 1 µM, 7x7, partner max 10 µM) | 0.185 | 0.884 | 0.337 | 0.318 | 0.108 | 0.651 | 0.386 | -0.0232 | -0.0283 | -0.0287 | – | 0.0181 | 0.0102 | -0.0591 | -0.0145 | 0.0479 | -0.0362 | -0.011 | 0.473 | 0.0408
Cc1cc2ncnn2cc1Nc1ncc2c(n1)n(C1CCOCC1)c(=O)n2C [AZD7648] + C=CCn1c(=O)c2cnc(Nc3ccc(N4CCN(C)CC4)cc3)nc2n1-c1cccc(C(C)(C)O)n1 [AZD1775] (first compound max 10 µM, partner max 1 µM) | 0.411 | 0.747 | 0.452 | 0.703 | 0.314 | 0.927 | 0.663 | -0.0327 | -0.0107 | -0.0773 | 0.0229 | 0.0185 | -0.0005 | 0.0398 | -0.0282 | -0.0176 | 0.0207 | 0.0647 | 0.704 | -0.0791
Cc1cc2ncnn2cc1Nc1ncc2c(n1)n(C1CCOCC1)c(=O)n2C [AZD7648] + COc1cc([C@@H]2c3cc4c(cc3[C@@H](O[C@@H]3O[C@@H]5CO[C@@H](C)O[C@H]5[C@H](O)[C@H]3O)[C@H]3COC(=O)[C@H]23)OCO4)cc(OC)c1O [Etoposide] (first compound max 10 µM, 7x7, partner max 10 µM) | 0.371 | – | 0.629 | 0.621 | 0.456 | – | 0.355 | -0.0081 | – | – | 0.024 | 0.0582 | – | – | 0.0478 | – | – | 0.0449 | – | 0.137
Cc1cc2ncnn2cc1Nc1ncc2c(n1)n(C1CCOCC1)c(=O)n2C [AZD7648] + O=C(c1cc(Cc2n[nH]c(=O)c3ccccc23)ccc1F)N1CCN(C(=O)C2CC2)CC1 [Olaparib] (first compound max 10 µM, 7x7, partner max 10 µM) | 0.0764 | 0.412 | 0.337 | 0.38 | 0.149 | 0.278 | 0.266 | -0.0417 | 0.0135 | -0.0253 | – | 0.0266 | -0.033 | -0.0126 | -0.0525 | -0.031 | 0.0102 | -0.0664 | 0.256 | 0.0101
N#Cc1cnc(Nc2cc(NC[C@H]3CNCCO3)c(C(F)(F)F)cn2)cn1 [SRA737] + CCc1c2c(nc3ccc(O)cc13)-c1cc3c(c(=O)n1C2)COC(=O)[C@]3(O)CC [SN-38] (first compound max 10 µM, 7x7, partner max 0.3 µM) | 0.758 | – | 0.746 | 0.747 | 0.866 | – | 0.787 | 0.0621 | – | – | -0.0262 | 0.0599 | – | – | -0.0418 | – | – | 0.0683 | – | -0.0004
N#Cc1cnc(Nc2cc(NC[C@H]3CNCCO3)c(C(F)(F)F)cn2)cn1 [SRA737] + Nc1ccn([C@@H]2O[C@H](CO)[C@@H](O)C2(F)F)c(=O)n1 [Gemcitabine] (first compound max 10 µM, 7x7, partner max 0.3 µM) | 0.848 | – | 0.743 | 0.708 | 0.608 | – | 0.737 | 0.0633 | – | – | -0.0363 | 0.123 | – | – | -0.0041 | – | – | 0.0892 | – | 0.0301
C[C@@H](c1ccc2nccn2c1)n1nnc2ncc(-c3cnn(C)c3)nc21 [Savolitinib] + CN(CC[C@H](CSC1=CC=CC=C1)NC2=C(C=C(C=C2)S(=O)(=O)NC(=O)C3=CC=C(C=C3)N4CCC(CC4)[C@H](C5=CC=CC=C5C6=CC=C(C=C6)Cl)O)S(=O)(=O)C(F)(F)F)CCO [AZD4320] (first compound max 1 µM, 7x7, partner max 1 µM) | – | 0.593 | – | – | – | 0.784 | – | – | -0.0555 | -0.0811 | – | – | -0.0288 | -0.0585 | – | 0.0235 | -0.0035 | – | 0.357 | –
